Measurements: patent US6147062A, “Phosphoryl hydrazine insecticides” (priority 1999, dated 2000)
Converted amounts (≈) assume the structure as drawn.

Tests used:
[1] = tested on: Mexican bean beetle (Epilachna varivestis); assay: Mexican Bean Beetle Test; format: in vivo; conditions: 600 grams per hectare, 48 hours after infestation, treated lima bean leaf
Description: (§1) The test solution was sprayed using a moving single boom tee jet sprayer at a volume equivalent to 935 liters/ha onto a petri dish containing a lima bean (Phaseolus limensis var: Woods' Prolific) leaf placed on a moistened piece of filter paper. After the leaf dried it was infested with ten beetles (Epilachna varivestis) and covered. The percent control was evaluated 48 hours after infestation.

[2] = tested on: Southern Root-Knot Nematode Meloidogyne incognita; assay: Nematode Screening Test; format: in vivo; conditions: 11400 grams per hectare; soil, cucumber roots, 21 days
Description: For the nematode test, soil was homogeneously inoculated with nematode eggs (Southern Root-Knot Nematode Meloidogyne incognita) at a rate of 20000 eggs per 200 milliliters (ml) of soil extracted from a macerated blend of tomato roots heavily knotted with the root-knot nematode. Ten ml of the 150 ppm test solution were added to 200 ml of the inoculated soil in a 16 oz. jar to give a concentration by volume of 11400 grams per hectare (gm/ha). […] The jars were shaken to ensure thorough mixing, immediately uncapped, and allowed to air for two hours. The soil was placed into a 7.5 cm plastic pot and three cucumber (Cucumis sativus) seeds were planted. The pots were held under greenhouse conditions for 21 days. Upon termination, the cucumber roots were examined for the presence of knots. Results are summarized in Table 2 and are expressed as percent knot reduction.

[3] = tested on: southern corn rootworm, Diabrotica undecimpunctata howardi; assay: Corn Rootworm Screening Test; conditions: in Zea mays, soil, 240 h, read-out: Percent Control of Corn Rootworm
[4] = tested on: Haemonchus contortus (McMaster, benzimidazole susceptible); assay: Anthelmintic Test, inhibition of larval development; conditions: 144 h, read-out: MIC (minimum inhibitory concentration)
Description: (§2) Compounds were tested as inhibitors of larval development in Haemonchus contortus (McMaster, benzimidazole susceptible) isolates, Trichostrongylus colubriformis (McMaster susceptible) and Ostertagia circumcincta (Glenlothian susceptible).
(§3) Eggs of the parasitic helminths, isolated from sheep feces, were applied to wells of a microtiter plate which contained a gradient of concentrations of the test compound in nutrient solution. After the eggs hatched, L1 larvae developed through to the L3 stage over 6 days. Development was inhibited and a minimum inhibitory concentration in ppm was determined. See for example, E. Lacey et al p 177-184 in: Resistance of Parasites to Antiparasitic Drugs, edited by J. C. Boray MSD AGVET, Rahway, N.J.

[5] = tested on: Trichostrongylus colubriformis (McMaster susceptible); assay: as above; conditions: 144 h, read-out: MIC (minimum inhibitory concentration)
Description: as §2, §3

[6] = tested on: Ostertagia circumcincta (Glenlothian susceptible); assay: as above; conditions: Teladorsagia circumcincta, 144 h, read-out: MIC (minimum inhibitory concentration)
Description: as §2, §3

[7] = tested on: Potato leafhopper (Empoasca fabae); assay: Potato Leafhopper Test; format: in vivo; conditions: 600 grams per hectare; 72 hours after infestation; treated fava bean leaf; read-out: Percent Control of Potato leaf hopper
Description: as §1, with “fava” for “lima”, “(Vicia faba)” for “(Phaseolus limensis var: Woods' Prolific)”, “five mixed nymphs (Empoasca fabae)” for “ten beetles (Epilachna varivestis)”, “72” for “48”

SMILES | percent control at 600 g/ha [1] [%] | Percent Control of Root Knot Nematode (percent knot reduction) [2] [%] | mortality at 11400 g/ha, 11400 g/ha [3] [%] | MIC [4] [µg/mL] | MIC [5] [µg/mL] | MIC [6] [µg/mL] | mortality at 600 g/ha, 600 g/ha [7] [%]
CCOP(=S)(OCC)N(NC(=O)C(Cl)(Cl)Cl)C(C)(C)C [Compound 1, 1-(O,O-diethylthiophosphoryl)-1-tertbutyl-2-trichloroacetyl Hydrazine] | 100 | 98 | 100 | – | – | – | –
CCCOP(=S)(OCCC)N(NC(=O)C(Cl)(Cl)Cl)C(C)(C)C [Compound 2] | 100 | 0 | 87 | – | – | – | –
CCCOP(=S)(OCC)N(NC(=O)C(Cl)(Cl)Cl)C(C)(C)C (centres unmarked) [Compound 3] | 100 | 74 | 98 | – | – | – | –
CCOP(=S)(OCC(C)(C)C)N(NC(=O)C(Cl)(Cl)Cl)C(C)(C)C (centres unmarked) [Compound 4] | 100 | 0 | 0 | – | – | – | –
CCOP(=S)(OC(C)CC)N(NC(=O)C(Cl)(Cl)Cl)C(C)(C)C (centres unmarked) [Compound 5] | 100 | 0 | 96 | – | – | – | –
CCOP(=S)(OC(C)C)N(NC(=O)C(Cl)(Cl)Cl)C(C)(C)C (centres unmarked) [Compound 6] | 100 | 54 | 100 | – | – | – | –
CCOP(=S)(OCC)N(NC(=O)C(F)(Cl)Cl)C(C)(C)C [Compound 7] | 80 | 0 | 96 | – | – | – | –
CCOP(=S)(OCC)N(NC(=O)C(Br)(Br)Br)C(C)(C)C [Compound 8] | 30 | 98 | 0 | – | – | – | –
COP(=S)(OC)N(NC(=O)C(Cl)(Cl)Cl)C(C)(C)C [Compound 9] | 100 | 100 | 100 | – | – | – | –
CCOP(=S)(OCC)N(NC(=O)C(Cl)Cl)C(C)(C)C [Compound 10, 1-(O,O-diethylthiophosphoryl)-1-tertbutyl-2-dichloroacetyl Hydrazine] | 100 | 100 | 0 | 1.56 (≈ 4.44 µM) | 12.5 (≈ 35.6 µM) | 1.56 (≈ 4.44 µM) | –
CCOP(=S)(OCC)N(NC(=O)CCl)C(C)(C)C [Compound 11, 1-(O,O-diethylthiophosphoryl)-1-tertbutyl-2-monochloroacetyl Hydrazine] | – | 43 | 0 | – | – | – | 100
CCOP(=S)(OCC)N(NC(=O)C(F)(F)F)C(C)(C)C [Compound 12] | – | 0 | 100 | – | – | – | 100
COP(=S)(OC)N(NC(=O)C(Cl)Cl)C(C)(C)C [Compound 13] | – | 100 | 0 | – | – | – | 100
COP(=S)(OC)N(NC(=O)CCl)C(C)(C)C [Compound 14] | – | 0 | 0 | – | – | – | 100
CCOP(=S)(OCC)N(NC(=O)C(F)(F)Cl)C(C)(C)C [Compound 15] | – | 0 | 0 | – | – | – | 100
COCCOP(=S)(OCCOC)N(NC(=O)C(Cl)(Cl)Cl)C(C)(C)C [Compound 16] | – | 0 | 66 | – | – | – | 100
COCCOP(=S)(OCCOC)N(NC(=O)C(Cl)Cl)C(C)(C)C [Compound 17] | – | 0 | 0 | – | – | – | 60
CCOP(=S)(OCCOC)N(NC(=O)C(Cl)(Cl)Cl)C(C)(C)C (centres unmarked) [Compound 18] | – | 25 | 0 | – | – | – | 100
CCOP(=S)(OCCOC)N(NC(=O)C(Cl)Cl)C(C)(C)C (centres unmarked) [Compound 19] | – | 90 | 0 | – | – | – | 100
CCOP(=S)(c1ccccc1)N(NC(=O)C(Cl)(Cl)Cl)C(C)(C)C (centres unmarked) [Compound 22] | – | – | 0 | – | – | – | 100
